Read-outs that look alike come from different tables or passages of the source.
Columns and labels:
11β-hsd-1 enzyme [1] = target: T1, 11β-hsd-1 enzyme (Homo sapiens, UniProt P28845); assay: biochemical
Protocol: The 11β-hsd-1 assay was performed in a 100 mM Triethanolamine buffer pH 8.0, containing 200 mM NaCl, 0.02% n-dodecyl β-D-maltoside, 5% glycerol, 5 mM β-mercaptoethanol. A typical reaction for the determination of Kiapp values was carried at R.T. in a Corning® u-bottom 96-well plate and is described as follows: 11β-hsd-1 enzyme (5 nM, final concentration) was pre-incubated in the presence of the inhibitor and NADPH (500 μM, final concentration) for at least 30 minutes in the assay buffer. When pre-incubation was completed, the reaction was initiated by adding the regenerating system (2 mM Glucose-6-Phosphate, 1U/mL Glucose-6-Phosphate dehydrogenase, and 6 mM MgCl2, all the concentration reported are final in the assay buffer), and 3H-cortisone (200 nM, final concentration). After 60 minutes, 60 μL of the assay mixture was transferred to a second 96-well plate and mixed with an equal volume of dimethylsulfoxide to stop the reaction. A 15 μL aliquot from the reaction mixture was loaded into a C-18 column (Polaris C18-A, 50×4.6 mm, 5 μ, 180 Angstrom from Varian) connected to an automated High-throughput Liquid Chromatography instrument developed by Cohesive Technologies Inc, of Franklin, Mass. USA, with a β-RAM model 3 Radio-HPLC detector from IN/US, of Tampa, Fla. USA. The substrate and product peaks were separated by using an isocratic mixture of 43:57 methanol to water (v/v) at a flow rate of 1.0 mL/min.
The initial reaction velocities were measured by stopping the reaction at 60 min and by measuring the area of product formation in the absence and the presence of various concentrations of inhibitors. The Kiapp values were determined using the equation for tight-binding inhibitor developed by Morrison, J. F. (Morrison J. F. Biochim BiophysActa. 1969; 185: 269-86).
The radiolabeled [1,2-3H]-cortisone is commercially available from American Radiolabeled Chemicals Inc of St. Louis, Mo. USA. NADPH, Glucose-6-Phosphate, and Glucose-6-Phosphate dehydrogenase were purchased from Sigma®.
(Morrison J. F. Biochim Biophys Acta. 1969; 185: 269-86).

11β-hsd-1 enzyme [2] = target: T1, 11β-hsd-1 enzyme; assay: biochemical; settings: read-out: % Inh @ 0.1 μM
Protocol: Percentage of inhibition was determined in a 100 mM Triethanolamine buffer, pH 8.0, 200 mM NaCl, 0.02% n-dodecyl β-D-maltoside and 5 mM β-ME. A typical reaction was carried on a Corning® u-bottom 96-well plate and is described as follows: 11β-hsd-1 enzyme (5 nM, final concentration) was pre-incubated in the presence of the inhibitor and NADPH (500 μM, final concentration) for at least 30 minutes
in the assay buffer. When pre-incubation was completed, the reaction was initiated by adding the regenerating system (2 mM Glucose-6-Phosphate, 1U/mL Glucose-6-Phosphate dehydrogenase, and 6 mM MgCl2, all the concentration reported are final in the assay buffer), and 3H-cortisone (200 nM, final concentration). After 60 minutes, 60 μL of the assay mixture was transferred to a second 96-well plate and mixed with an equal volume of dimethylsulfoxide to stop the reaction. A 15 μL aliquot from the reaction mixture was loaded into a C-18 column (Polaris C18-A, 50×4.6 mm, 5 μ, 180 Angstrom from Varian) connected to an automated High-throughput Liquid Chromatography instrument developed by Cohesive Technologies Inc of Franklin, Mass., with a […] model 3 Radio-HPLC detector from IN/US of Tampa, Fla. The substrate and product peaks were separated by using an isocratic mixture of 43:57 methanol to water (v/v) at a flow rate of 1.0 mL/min.
Percent Inhibition was calculated based on the following equation: (1-(3H-Cortisol peak area in the […] of inhibitor)×100).

T1 sequence (P28845 whole entry, species assumed): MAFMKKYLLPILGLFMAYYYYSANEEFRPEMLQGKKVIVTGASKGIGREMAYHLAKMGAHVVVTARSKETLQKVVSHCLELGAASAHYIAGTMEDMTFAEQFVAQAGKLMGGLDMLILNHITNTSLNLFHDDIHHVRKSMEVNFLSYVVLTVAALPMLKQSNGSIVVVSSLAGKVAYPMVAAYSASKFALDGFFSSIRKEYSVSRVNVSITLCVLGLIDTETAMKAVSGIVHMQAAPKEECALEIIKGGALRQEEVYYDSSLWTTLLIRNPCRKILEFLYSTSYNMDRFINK

O=S(=O)(Nc1cccc(CCO)n1)N1CCc2ccccc2CC1 [Example 16, N-[6-(2-hydroxyethyl)pyridin-2-yl]-1,2,4,5-tetrahydro-3H-3-benzazepine-3-sulfonamide]
Ki (11β-hsd-1 enzyme [1]): 2.4 nM
inhibition at 0.1 µM (11β-hsd-1 enzyme [2]): 100%

CCN(CC)C(=O)Cc1cccc(NS(=O)(=O)N2CCc3ccccc3CC2)n1 [Example 17, N,N-diethyl-2-{6-[(1,2,4,5-tetrahydro-3H-3-benzazepin-3-ylsulfonyl)amino]pyridin-2-yl}acetamide]
Ki (11β-hsd-1 enzyme [1]): 5.7 nM
inhibition at 0.1 µM (11β-hsd-1 enzyme [2]): 100%

CCc1cccc(NS(=O)(=O)N2CCc3ccc(S(C)(=O)=O)cc3CC2)n1 [Example 18]
Ki (11β-hsd-1 enzyme [1]): 13 nM
inhibition at 0.1 µM (11β-hsd-1 enzyme [2]; Table 1, inhibitor 0.1 μM): 78.2%

Cc1cc(N)nc(NS(=O)(=O)N2CCN(c3ccc(C#N)cn3)CC2)c1 [Example 20, N-(6-amino-4-methylpyridin-2-yl)-4-(5-cyanopyridin-2-yl)piperazine-1-sulfonamide]
Ki (11β-hsd-1 enzyme [1]): 2.5 nM
inhibition at 0.1 µM (11β-hsd-1 enzyme [2]): 100%

Cc1cccc(NS(=O)(=O)N2CCCC(c3ccc(F)cc3)C2)n1 (stereo not drawn) [Example 22]
Ki (11β-hsd-1 enzyme [1]): 22 nM
inhibition at 0.1 µM (11β-hsd-1 enzyme [2]): 90%

Cc1cccc(NS(=O)(=O)N2CCN(c3ccc(C#N)cn3)[C@H](C)C2)n1 [Example 23, (3R)-4-(5-cyanopyridin-2-yl)-3-methyl-N-(6-methylpyridin-2-yl)piperazine-1-sulfonamide]
Ki (11β-hsd-1 enzyme [1]): 19.8 nM
inhibition at 0.1 µM (11β-hsd-1 enzyme [2]): 100%

Cc1cccc(NS(=O)(=O)N2CCC(F)(c3ccc(C#N)cc3)CC2)n1 [Example 25, 4-(4-cyanophenyl)-4-fluoro-N-(6-methylpyridin-2-yl)piper-idine-1-sulfonamide]
Ki (11β-hsd-1 enzyme [1]): 63.5 nM
inhibition at 0.1 µM (11β-hsd-1 enzyme [2]; Table 1, inhibitor 0.1 μM): 50%

Cc1cccc(NS(=O)(=O)N2CC=C(c3ccc(C#N)cc3)CC2)n1 [Example 26, 4-(4-cyanophenyl)-N-(6-methylpyridin-2-yl)-3,6-dihydro-pyridine-1(2H)-sulfonamide]
Ki (11β-hsd-1 enzyme [1]): 1.6 nM
inhibition at 0.1 µM (11β-hsd-1 enzyme [2]): 100%

Cc1cc(C)nc(NS(=O)(=O)N2CCN(c3ccc(C#N)cn3)[C@H](C)C2)c1 [Example 28]
Ki (11β-hsd-1 enzyme [1]): 0.66 nM
inhibition at 0.1 µM (11β-hsd-1 enzyme [2]): 100%

N#Cc1ccc(N2CCN(S(=O)(=O)Nc3cccc(CO)n3)CC2)nc1 [Example 29, 4-(5-cyanopyridin-2-yl)-N-[6-(hydroxymethyl)pyridin-2-yl]piperazine-1-sulfonamide]
Ki (11β-hsd-1 enzyme [1]): 13 nM
inhibition at 0.1 µM (11β-hsd-1 enzyme [2]; Table 1, inhibitor 0.1 μM): 95%

C[C@@H]1CN(S(=O)(=O)Nc2cccc(CO)n2)CCN1c1ccc(C#N)cn1 [Example 30]
Ki (11β-hsd-1 enzyme [1]): > 1 nM
inhibition at 0.1 µM (11β-hsd-1 enzyme [2]): 100%

Cc1cc(N)nc(NS(=O)(=O)N2CCN(c3ncc(F)cn3)CC2)c1 [Example 31, N-(6-amino-4-methylpyridin-2-yl)-4-(5-fluoropyrimidin-2-yl)piperazine-1-sulfonamide]
Ki (11β-hsd-1 enzyme [1]): 11 nM
inhibition at 0.1 µM (11β-hsd-1 enzyme [2]): 100%

CC(C)c1cccc(NS(=O)(=O)N2CCN(c3ccc(C#N)cn3)CC2)n1 [Example 32, 4-(5-cyanopyridin-2-yl)-N-(6-isopropylpyridin-2-yl)piper-azine-1-sulfonamide]
Ki (11β-hsd-1 enzyme [1]): 2.4 nM
inhibition at 0.1 µM (11β-hsd-1 enzyme [2]): 97%

Cc1cccc(NS(=O)(=O)N2CCC(c3ccc(C#N)cn3)CC2)n1 [Example 33, 4-(5-cyanopyridin-2-yl)-N-(6-methylpyridin-2-yl)piperidine-1-sulfonamide]
Ki (11β-hsd-1 enzyme [1]): 50 nM
inhibition at 0.1 µM (11β-hsd-1 enzyme [2]): 100%

CC(C)c1cccc(NS(=O)(=O)N2CCC(c3ccc(C#N)cn3)CC2)n1 [Example 34]
Ki (11β-hsd-1 enzyme [1]): 26 nM
inhibition at 0.1 µM (11β-hsd-1 enzyme [2]): 100%

O=S(=O)(Nc1ccc2ncccc2n1)N1CCN(c2ccc(C(F)(F)F)cn2)CC1 [Example 35, N-1,5-naphthyridin-2-yl-4-[5-(trifluoromethyl)pyridin-2-yl]piperazine-1-sulfonamide]
Ki (11β-hsd-1 enzyme [1]): 10 nM
inhibition at 0.1 µM (11β-hsd-1 enzyme [2]): 100%

Cc1cc(Cl)cnc1N1CCN(S(=O)(=O)Nc2ccc3ncccc3n2)CC1 [Example 37, 4-(5-chloro-3-methylpyridin-2-yl)-N-1,5-naphthyridin-2-ylpiperazine-1-sulfonamide]
Ki (11β-hsd-1 enzyme [1]): 100 nM
inhibition at 0.1 µM (11β-hsd-1 enzyme [2]): 80%

N#Cc1ccc(C2CCN(S(=O)(=O)Nc3ccc4ccccc4n3)CC2)nc1 [Example 38]
Ki (11β-hsd-1 enzyme [1]): 31 nM
inhibition at 0.1 µM (11β-hsd-1 enzyme [2]): 100%
